From patent publication US6890954B1, “Uses of 2-bromopalmitate in the treatment of autoimmune disease” (priority 1999, dated 2005) come the findings set out here.

Common to all, as to assay type: cell-based
One test relates to ZAP-70. Briefly: CD3-mediated tyrosine phosphorylation of ZAP-70 in Jurkat cells. As to conditions: 100 μM 3 hours, OKT3. The method, then: Jurkat T cells (2×10^6−1×10^7) were centrifuged at 1,000×g for 5 minutes, rinsed with RPMI, resuspended in RPMI supplemented with 2% dialyzed FBS, 0.5% defatted BSA, and incubated with or without 100 μM 2-bromopalmitate at 8×10^5 cells/ml for 3 hours. The cells were centrifuged, washed with RPMI and resuspended in RPMI at 1×10^7−1×10^8 cells/ml. The cells were then activated with anti-CD3 OKT3 mAb (0.3 mg/ml) for 3 min at 37° C., quickly spun down, washed once with cold RPMI and once with cold STE, and lysed in RIPA Samples were solubilized in 1× sample buffer containing 5% β-mercaptoethanol and subjected to SDS-PAGE, followed by immunoblotting with anti-phosphotyrosine antibody (PY99). For analysis of specific proteins, RIPA lysates were immunoprecipitated with the specific antibodies O/N, and immunoblotted for phosphotyrosine. Alternatively, proteins were immunoprecipitated with agarose-conjugated anti phosphotyrosine antibody and blotted for the specific proteins.
In order to identify the individual proteins whose tyrosine phosphorylation is affected by 2-bromopalmitate, lysates were immunoprecipitated with a panel of specific antibodies, and immunoblotted for phosphotyrosine. Alternatively, lysates were immunoprecipitated with an antiphosphotyrosine antibody, and blotted with antibodies to specific proteins.

In a further test the test system is GAP43(10)-Fyn. Briefly: Membrane binding of GAP43(10)-Fyn chimera in COS-1 cells. As to conditions: COS-1, 2-bromopalmitate overnight, 2 hours label. As for the experimental part:
For analysis of newly synthesized Fyn, cells were cultured overnight as descibed above, then starved for 1 hr in DMEM minus methionine and cysteine containing 2% dialyzed FBS, 0.5% defatted BSA with or without 100 μM 2-bromopalmitate. Cells were labeled for 5 minutes with Trans^35S-Label (ICN, Irvine, Calif.), then fractionated as described above. Gels were treated for 20 minutes with 1M salicylic acid prior to drying. The Gαo(10)-Fyn chimera was labeled for 5 min and GAP-43 Fyn chimera was labeled for 2 hours and fractionated according to the above conditions.
Each of these three sequences was appended onto the Fyn protein. Gαo(10)-Fyn and GAP43(10)-Fyn are chimeric constructs with the first 10 amino acids of Gαo or GAP-43, respectively, in place of the first 10 amino acids of wt Fyn. These constructs have been previously described (12,13). In addition, the H-Ras tail was fused to the C-terminus of a non-acylated Fyn mutant (G2A,C3SFyn-HRas). This construct contains full length Fyn with mutations in the N-terminal myristoylation and palmitoylation sites, but with the C-terminus of H-Ras available for prenylation and palmitoylation.

A further test concerns Fyn(16)-eGFP. Put plainly: Localization of Fyn(16)-eGFP in COS-1 cells (fluorescence microscopy, P100/S100 fractionation). As for the experimental part:
COS-1 cells were transfected with a Fyn(16)-eGFP construct (12) and seeded onto 25-mm glass coverslips 2 days prior to the experiment. Cells were treated overnight with or without 2 bromopalmitate as described above. Plates were washed with PBS and coverslips were mounted onto glass slides in PBS and observed with a 40× and 100×oil immersion lens on a Zeiss Axiophot 2 microscope and photographed with Kodak TMAX 400.
To investigate the effect of 2-bromopalmitate on the intracellular localization of Fyn more precisely, COS-1 cells expressing a Fyn(16)-eGFP construct were examined by immunofluorescence. This construct contains the first 16 amino acids of Fyn fused in frame to eGFP; the chimera is targeted to the plasma membrane and detergent resistant microdomains (12). Cells were cultured with no treatment, with 2-bromopalmitate or with 2-hydroxymyristate, a known myristoylation inhibitor (40,41), as described above, and were examined live by fluorescence microscopy.
Analysis of the subcellular localization of Fyn(16)-eGFP in the presence of 2-bromopalmitate and 2-hydroxymyristate was performed as described above for steady-state Fyn. As depicted in FIG. 2B, in the absence of treatment, 80% of Fyn(16)-eGFP Fyn was membrane bound, whereas in cells treated with 2-bromopalmitate and 2-hydroxymyristate, 65% and 78% of Fyn(16)-eGFP were cytosolic, respectively.

Molecule `CCCCCCCCCCCCCCC(Br)C(=O)O` (stereo not shown) [2-bromopalmitate] displayed a ZAP-70 phosphorylation inhibited with ZAP-70 of 50%. Moreover, the “inhibition of membrane binding of GAP43(10)-Fyn” value with GAP43(10)-Fyn was “to the same extent as wt Fyn”. Moreover, the “Fyn(16)-eGFP cytosolic” value in the test on Fyn(16)-eGFP (COS-1, 100 μM overnight, P100/S100, untreated 80% membrane bound) was determined as 65%. Moreover, the “Fyn(16)-eGFP distribution by fluorescence microscopy” value in the test on Fyn(16)-eGFP (COS-1 live cells, 100 μM overnight) is given as “reduced plasma membrane staining”.
